In patent EP0298135A1, “Phenylalanine derivative and proteinase inhibitor” (Okamoto, Shosuke, priority 1987, dated 1989):

Experiments:
Type in all cases: biochemical
human plasmin [1] = biological target: T1, human plasmin (Homo sapiens, UniProt P00747); experiment: Antiplasmin activity: inhibition of fibrin decomposition; details: Table 2; concentration at which fibrin dissolution time is extended twice, pH 7.4, 37°C; read-out: Plasmin Fibrin (concentration I₅₀)
Method: (i) Determination of inhibition activity on fibrin decomposition
An inhibitor sample is dissolved in a 0.l8 M borate-physiological salt buffer solution (pH = 7.4) to bring the total volume to 600 µl. To this buffer solution, 200 µl of a 0.2% bovine fibrinogen, l00 µl of a 0.3 casein unit/ml human plasmin solution, and l00 µl of a 50 unit/ml bovine thrombin solution, all dissolved in the above-mentioned buffer, are added at a temperature of 37°C in a constant temperature bath. The dissolution time of the fibrin mass formed above is then determined.

human plasmin [2] = biological target: T1, human plasmin; experiment: Antiplasmin activity: inhibition of S-2251 decomposition; details: Table 2; substrate S-2251, pH 7.4, 37°C; read-out: Plasmin S-2251 (concentration I₅₀)
Method: (ii) Determination of inhibition activity on S-225l decomposition
An inhibitor sample is dissolved in a 0.05 M Tris-hydrochloric acid buffer solution (pH = 7.4) to bring the total volume to 400 µl. To this solution, 50 µl of a 3 mM S-225l solution is added and the mixture is incubated at a temperature of 37°C for 5 minutes in a constant temperature bath. Then 50 µl of a 0.2 casein unit/ml human plasmin is added and the mixture is incubated at a temperature of 37°C for 4 minutes. Thereafter, the reaction is stopped by adding 50 µl of 50% acetic acid.
Thus, the concentration I₅₀ (µmol) of the inhibitor sample, at which the absorbance is one half (i.e., l/2) of that obtained in the absence of the inhibitor, is determined.

bovine trypsin = biological target: T2, bovine trypsin (Bos taurus, UniProt P00760); experiment: Antitrypsin activity: inhibition of S-2238 decomposition; details: Table 2; substrate S-2238, pH 8.1, 37°C; read-out: Trypsin S-2238 (concentration I₅₀)
T2 sequence (P00760 24-246): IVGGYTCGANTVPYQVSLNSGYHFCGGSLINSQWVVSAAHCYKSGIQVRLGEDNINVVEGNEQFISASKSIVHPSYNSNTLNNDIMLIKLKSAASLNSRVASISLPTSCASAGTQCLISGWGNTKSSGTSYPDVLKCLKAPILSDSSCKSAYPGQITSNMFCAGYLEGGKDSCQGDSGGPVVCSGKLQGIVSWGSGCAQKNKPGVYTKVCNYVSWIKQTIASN
Method: Determination of inhibition activity against S-2238 decomposition An inhibitor sample is dissolved in a 0.05 M Tris-imidazole buffer solution (pH = 8.l) and l25 µl of a l mM S-2238 solution is added to bring the total volume to l.20 ml. The mixture is incubated at a temperature of 37°C for 5 minutes in a constant temperature bath. To this mixture, 0.05 ml of bovine trypsin is added and the absorbance, at 405 nm, of the p-nitroaniline formed per minute is determined at a temperature of 37°C by using the so-called initial velocity method. Thus, the concentration I₅₀ (µmol) of the inhibitor sample, at which the absorbance is one half (i.e., l/2) of that obtained in the absence of the inhibitor sample, is determined.

bovine thrombin [3] = biological target: T3, bovine thrombin (Bos taurus, UniProt P00735); experiment: Antithrombin activity: inhibition of fibrin formation from fibrinogen
Method: (i) Determination of inhibition activity against fibrin formation
An inhibitor sample is dissolved in a 0.l8 M borate-physiological salt buffer solution (pH = 7.4) to bring the total volume to 500 µl. To this solution, 400 µl of a 0.2% bovine fibrinogen solution and l00 µl of a 4 unit/ml bovine thrombin solution are added at a temperature of 37°C in a constant temperature bath. Thus, a coagulation time is determined. The inhibitor concentration I₅₀ (µmol), at which the coagulation time obtained in the absence of the inhibitor is extended twice, is determined.

bovine thrombin [4] = biological target: T3, bovine thrombin; experiment: Antithrombin activity: inhibition of S-2238 decomposition
Method: (ii) Determination of inhibition activity on S-2238 decomposition
An inhibitor sample is dissolved in a 0.05 M Tris-hydrochloric acid buffer solution (pH = 8.3) to bring the a total volume to 400 µl. To this solution, 50 µl of a 0.2 mM S-2238 solution is added and the mixture is incubated at a temperature of 37°C for 5 minutes in a constant temperature bath. Then 50 µl of a 0.2 unit/ml bovine thrombin solution is added thereto and the absorbance, at 405 nm, of the p-nitroaniline formed per minute is determined at a temperature of 37°C by using the so-called initial velocity method. Thus, the concentration I₅₀ (µmol) of the inhibitor sample, at which the absorbance is one half (i.e., l/2) of that obtained in the absence of the inhibitor sample, is determined.

human urokinase = human urokinase (Homo sapiens, UniProt P00749); experiment: Antiurokinase activity: inhibition of S-2444 decomposition; details: Table 2; substrate S-2444, pH 8.8, 37°C; read-out: Urokinase S-2444 (concentration I₅₀)
Method: Determination of inhibition activity for S-2444 decomposition
An inhibitor sample is dissolved in a 0.05 M Tris-hydrochloric acid buffer solution (pH = 8.8) to bring the total volume to 400 µl. To this solution, 50 µl of a l mM S-2444 solution is added and the mixture is incubated at a temperature of 37°C for 5 minutes in a constant temperature bath. Then 50 µl of a 500 unit/ml human urokinase is added and the mixture is incubated at a temperature of 37°C for 5 minutes. Thereafter, 50 µl of 50% acetic acid is added to terminate the reaction. The absorbance of the p-nitroaniline formed in the reaction mixture is measured at 405 nm. Thus, the concentration I₅₀ (µmol) of the inhibitor sample, at which the absorbance is one half (i.e., l/2) of that obtained in the absence of the inhibitor sample, is determined.

human plasma kallikrein = human plasma kallikrein (Homo sapiens, UniProt P03952); experiment: Anti-plasma kallikrein activity: inhibition of S-2302 decomposition; details: Table 2; substrate S-2302, pH 7.8, 37°C; read-out: Plasma Kallikrein S-2302 (concentration I₅₀)
Method: An inhibitor sample is dissolved in a 0.05 M Tris-hydrochloric acid buffer solution (pH = 7.8) to bring the total volume to 400 µl. […] Then, 50 µl of a 0.l2 unit/ml human plasma kallikrein is added and the mixture is incubated at a temperature of 37°C for 5 minutes. Thereafter, 50 µl of 50% acetic acid is added to terminate the reaction. […] Thus, the concentration I₅₀ (µmol) of the inhibitor sample, at which the absorbance is one half (i.e., l/2) of that obtained in the absence of the inhibitor sample, is determined.

T1 sequence (P00747 581-810 limits assumed): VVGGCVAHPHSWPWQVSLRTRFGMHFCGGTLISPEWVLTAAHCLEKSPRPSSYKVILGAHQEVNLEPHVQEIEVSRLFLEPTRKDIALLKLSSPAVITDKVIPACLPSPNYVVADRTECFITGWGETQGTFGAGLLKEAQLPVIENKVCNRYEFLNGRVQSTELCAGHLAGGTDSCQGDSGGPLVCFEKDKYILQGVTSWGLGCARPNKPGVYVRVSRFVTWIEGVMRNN
T1 sequence (P00747 97-580 partner limits assumed): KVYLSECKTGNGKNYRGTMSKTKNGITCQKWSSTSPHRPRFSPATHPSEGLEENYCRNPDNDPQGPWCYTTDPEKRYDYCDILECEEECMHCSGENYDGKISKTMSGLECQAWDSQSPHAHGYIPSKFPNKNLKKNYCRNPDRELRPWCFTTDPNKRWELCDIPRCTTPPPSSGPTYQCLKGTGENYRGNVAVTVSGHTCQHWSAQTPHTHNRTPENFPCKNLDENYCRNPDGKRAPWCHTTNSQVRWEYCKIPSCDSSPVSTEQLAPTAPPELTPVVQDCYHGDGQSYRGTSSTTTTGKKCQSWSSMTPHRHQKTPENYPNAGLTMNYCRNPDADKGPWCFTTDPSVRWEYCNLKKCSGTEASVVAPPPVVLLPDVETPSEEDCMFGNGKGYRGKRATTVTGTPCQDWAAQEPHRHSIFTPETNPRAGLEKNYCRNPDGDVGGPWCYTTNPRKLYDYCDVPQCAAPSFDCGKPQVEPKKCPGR
human plasma kallikrein, sequence (P03952 391-638 limits assumed): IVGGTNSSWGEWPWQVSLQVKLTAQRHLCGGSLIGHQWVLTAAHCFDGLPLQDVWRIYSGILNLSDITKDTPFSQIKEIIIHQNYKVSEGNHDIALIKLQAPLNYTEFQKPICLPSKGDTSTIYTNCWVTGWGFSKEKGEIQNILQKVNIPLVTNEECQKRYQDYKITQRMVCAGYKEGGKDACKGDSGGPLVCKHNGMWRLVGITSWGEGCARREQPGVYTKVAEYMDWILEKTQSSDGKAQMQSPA
human plasma kallikrein, sequence (P03952 20-390 partner limits assumed): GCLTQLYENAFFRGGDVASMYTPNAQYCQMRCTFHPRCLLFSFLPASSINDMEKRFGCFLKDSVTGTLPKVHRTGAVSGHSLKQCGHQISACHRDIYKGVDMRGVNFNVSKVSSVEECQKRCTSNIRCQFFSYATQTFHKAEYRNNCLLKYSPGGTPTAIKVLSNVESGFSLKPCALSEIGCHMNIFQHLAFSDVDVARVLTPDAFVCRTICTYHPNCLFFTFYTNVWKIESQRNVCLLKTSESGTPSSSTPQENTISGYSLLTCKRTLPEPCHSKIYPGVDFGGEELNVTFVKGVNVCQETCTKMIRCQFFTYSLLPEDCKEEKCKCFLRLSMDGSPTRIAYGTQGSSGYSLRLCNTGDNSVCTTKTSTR

IC50 (human plasmin [1]) [µM]	IC50 (human plasmin [2]) [µM]	IC50 (bovine trypsin) [µM]	IC50 (bovine thrombin [3]) [µM]	IC50 (bovine thrombin [4]) [µM]	IC50 (human urokinase) [µM]	IC50 (human plasma kallikrein) [µM]	Compound
> 100	120	75	> 100	> 200			NCCCCC(=O)N[C@@H](Cc1ccccc1)C(=O)Nc1ccc(C(=O)c2ccccc2)cc1 [Compound No. 2, N-(5-aminovaleryl)-L-phenylalanine 4-benzoylanilide]
> 500	> 500		> 500	> 500	> 500	> 500	CCOC(=O)CC(O)CNC(=O)[C@H](Cc1ccccc1)NC(=O)CCCCCN (stereo partly drawn) [compound 5]
> 200	> 400	14	> 500	330	190	2.2	CC(=O)c1ccc(NC(=O)[C@H](Cc2ccccc2)NC(=O)c2ccc(NC(=N)N)cc2)cc1 [compound 15]
> 1000	> 1000		> 1000	> 1000	> 1000	> 1000	COC(=O)[C@@H]1CCCN1C(=O)[C@H](Cc1ccccc1)NC(=O)c1ccc(NC(=N)N)cc1 [compound 22]
